Measured values: patent publication US4677107A, “Anti-peptic ulcer agent” (Dainippon Pharmaceutical Co., Ltd., priority 1983, dated 1987)
Counter-ions that a name gives are not always drawn. Like-named read-outs stand apart in the source and are kept apart here.

Columns and labels:
[1] = tested on: ulceration induced by exposure to stress (restraint and water immersion); assay: Effect on the ulceration induced by exposure to stress (restraint and water immersion); format: in vivo, male Wistar strain rats; conditions: for ED50: Rattus norvegicus, po, 30 minutes before immersion, rats, read-out: ED50 (dose required for 50% inhibition of the ulcer index)
Experimental: [I] Effect on the ulceration induced by exposure to stress (restraint and water immersion): Male Wistar strain rats (weighing, about 200 g) were placed in a stress cage which served to immobilize the animals therein and then immersed in a water bath of 23° C. to the height of xiphoid of the animals according to the method of Takagi et al. [cf. Takagi, K. and Okabe, S., Japan. J. Pharmacol., 18, 9 (1968)]. After 20 hours, the animals were sacrificed and the stomach was removed. The stomach was inflated with 13 ml of saline and placed in 5% formalin solution for 5 minutes. After washing with saline, the stomach was cut open along the greater curvature and the length (mm) of each lesion in the glandular portion was measured using a dissecting microscope (×12). The sum of the length (mm) of each lesions in a stomach was indicated as an ulcer index. In case of reference experiment using butylscopolamine bromide, a photograph of the mucosal surface of stomach was taken after the stomach was treated in the same manner as described above. The photograph was magnified by nine times, and the sum of the area (mm^2) of each lesions in a stomach was indicated as an ulcer index. The ulcer index in drug treated groups was compared with that in control group, and thereby, inhibitory percentage was calculated and then ED50 value, i.e., the dose required for 50% inhibition of the ulcer index, was determined by the usual graphic method. Drugs to be tested were suspended in 0.5% tragacanth solution and administered orally 30 minutes before the immersion. In the control group, a vehicle (0.5% tragacanth solution) was administered.

[2] = tested on: ulceration induced by pylorus-ligation; assay: Effect on the ulceration induced by pylorus-ligation in rats; format: in vivo, male Wistar strain rats; conditions: for ED50: Rattus norvegicus, po, 30 minutes before ligation, rats, 18 hours, ulcer index 0 to 5, read-out: ED50 (dose required for 50% inhibition of ulcer index)
Experimental: [II] Effect on the ulceration induced by pylorus-ligation in rats: Male Wistar strain rats (weighing about 190 g) were fasted for 48 hours before experiment. The pylorus of each rat was ligated under ether anaesthesia according to the method of Shay et al. [cf. Shay, H., et al., Gastroenterology, 5, 43-61 (1945)]. Each of the animals was then allowed to stand abstained from food and water in a cage. After 18 hours, the animals were sacrificed under ether anaesthesia, and the stomachs were removed and cut open along the greater curvature. […] 4: marked ulcers more than two 5: perforated ulcer The ulcer index in drug treated groups was compared to that in the control group, and thereby, the inhibitory percentage was calculated and then ED50, i.e. the dose required for 50% inhibition of ulcer index, was determined by the usual graphic method. Drugs to be tested were suspended in 0.5% tragacanth solution and administered 30 minutes before the ligation. In the control group, a vehicle (0.5% tragacanth solution) was administered.

gastric secretion = assay: Effect on gastric secretion in rats (pylorus ligation, total acid content); format: in vivo, male Wistar strain rats; conditions: for ED50: Rattus norvegicus, po, 30 minutes before ligation, rats, 4 hours after ligation, read-out: ED50 (dose required for 50% reduction of acid content)
Experimental: [III] Effect on gastric secretion in rats: Male Wistar strain rats (weighing, about 200 g) were fasted for 24 hours before experiment. The pylorus was ligated under ether anaesthesia. Four hours after the ligation, the stomach was removed under ether anaesthesia. The gastric content was collected and centrifuged, and the secretory volume, pH and acid content of the supernatant were measured. The acid content was measured by titrating to pH 7.0 with 0.02N NaOH using pH meter (Hitachi Horiba, M-5). The total acid content of the drug treated groups was compared with that of the control group, and thereby, the reduction percentage of acid content was calculated and then ED50, i.e. the dose required for 50% reduction of acid content, was determined by the usual graphic method. Drugs to be tested were suspended in 0.5% tragacanth solution and administered orally 30 minutes before the ligation. In the control group, a vehicle (0.5% tragacanth solution) was administered.

[3] = U.S. Pat. No. 3,542,785 and 3,668,207; cited from earlier work
[4] = U.S. Pat. No. 3,542,785 and 3,668,207; cited from earlier work; remark: listed apart in the source
[5] = tested on: contraction of ileum preparation by acetylcholine; assay: Anti-acetylcholine action (isolated ileum contraction by acetylcholine); design: species or system male Hartley guinea-pigs; conditions: for IC50 (50% inhibition concentration), contraction of ileum by acetylcholine: acetylcholine chloride 2×10^-8 g/ml, drug added 2 minutes prior, 35° C.; for anti-acetylcholine activity (in words): isolated guinea-pig ileum
Experimental: [IV] Anti-acetylcholine action:
A piece of ileum, taken from male Hartley guinea-pigs (weighing 250-350 g) was suspended longitudinally in a bath containing Tyrode solution (20 ml) under constant bubbling of 95% oxygen and 5% carbon dioxide gas at 35° C. The contraction of the preparation by acetylcholine chloride (2×10^-8 g/ml) was recorded on an oscillograph (Nihonkoden, RJG-3004) via an isotonic transducer (Nihonkoden, TD-111S). Drugs to be tested (Compound A and Compound C) were added to the bath 2 minutes prior to the application of acetylcholine chloride. The average percent inhibition of the test Compound A against the contraction of ileum preparation by acetylcholine is shown in the accompanying FIG. 1. Based on the average percent inhibition on the graph, IC50, i.e. 50% inhibition concentration of the test compound, was calculated. […] IC50 of Compound C was calculated likewise. As a result, it was 1.9× 10^-6 g/ml.

[6] = U.S. Pat. No. 4,237,135 and U.K. Pat. No. 2,017,698; cited from earlier work
pupil size = assay: Mydriatic action in rats; format: in vivo, male Wistar strain rats; conditions: for Percent mydriasis: one hour after administration, 3 mm dilation = 100 percent
Source text: [IV] Mydriatic action in rats:
Male Wistar strain rats (weighing, 150-200 g) were used. Pupil size of the animals was twice measured microscopically just before and one hour after administration of drugs at a distance of 30 cm from the source of a constant light (30 W fluorescent light) according to the method of Pulewka [cf. Arch. exp. Path. U. Pharmakol., 168, 307 (1932)]. Based on the change between the first measured pupil size and the second measured pupil size, mydriasis percentage was calculated provided that mydriasis percentage is supposed to be 100 percent in case of 3 mm dilation of pupil size in diameter. Drugs to be tested were suspended in 0.5% tragacanth solution and administered. In the control group, a vehicle (0.5% tragacanth solution) was administered.

[7] = ulcer index = sum of length (mm) of lesions
[8] = 1 mg/kg p.o., ulcer index = sum of length (mm) of lesions
[9] = 2 mg/kg p.o., ulcer index = sum of length (mm) of lesions
[10] = 5 mg/kg p.o., ulcer index = sum of length (mm) of lesions

Row | SMILES | ED50 [1, 7] | Ulcer index Inhibitory % ([2]; 50 mg/kg p.o.) | Ulcer index Inhibitory % ([2]; 100 mg/kg p.o.) | Ulcer index Inhibitory % ([2]; 200 mg/kg p.o.) | ED50 [2] | Total acid content Reduction % (gastric secretion; 20 mg/kg p.o.) | Total acid content Reduction % (gastric secretion; 50 mg/kg p.o.) | ED50 (gastric secretion) | anti-inflammatory activity [3] | diuretic activity [4] | Ulcer index Inhibitory % [1, 8] | Ulcer index Inhibitory % [1, 9] | Ulcer index Inhibitory % [1, 10] | Ulcer index Inhibitory % ([2]; 5 mg/kg p.o.) | Ulcer index Inhibitory % ([2]; 10 mg/kg p.o.) | Ulcer index Inhibitory % ([2]; 20 mg/kg p.o.) | Total acid content Reduction % (gastric secretion; 1 mg/kg p.o.) | Total acid content Reduction % (gastric secretion; 2 mg/kg p.o.) | Total acid content Reduction % (gastric secretion; 5 mg/kg p.o.) | IC50 (50% inhibition concentration), contraction of ileum by acetylcholine [5] | other results
1 | CN/C(=N/CCSCc1nc[nH]c1C)NC#N [Cimetidine, reference compound] | 26.9 mg/kg | 0% | 9.1% | 42.4% | 253 mg/kg | 44.0% | 71.6% | 26.8 mg/kg |  |  |  |  |  |  |  |  |  |  |  |  | Ulcer index Inhibitory % ([1]; 20 mg/kg p.o., ulcer index = sum of length (mm) of lesions): 29.1%; Ulcer index Inhibitory % ([1]; 50 mg/kg p.o., ulcer index = sum of length (mm) of lesions): 75.0%; Ulcer index Inhibitory % ([1]; 100 mg/kg p.o., ulcer index = sum of length (mm) of lesions): 77.0%; Ulcer index Inhibitory % ([2]; 500 mg/kg p.o.): 75.8%; Total acid content Reduction % (gastric secretion; 10 mg/kg p.o.): 9.4%
2 | Clc1ccc2nc(N3CCN(c4ccccc4)CC3)cc(-c3ccccc3)c2c1 [6-chloro-2-(4-phenyl-1-piperazinyl)-4-phenylquinoline] |  |  |  |  |  |  |  |  | have anti-inflammatory activity | diuretic activity |  |  |  |  |  |  |  |  |  |  | 
3 | O=C(O)/C=C\C(=O)O.c1ccc(-c2cc(N3CCNCC3)nc3ccccc23)cc1 [Compound C, 2-(1-piperazinyl)-4-phenylquinoline monomaleate] | 0.45 mg/kg | 75.0% |  |  | 14 mg/kg |  |  | 1.1 mg/kg |  |  | 55.9% | 73.6% | 71.8% | 37.5% | 43.8% | 56.3% | 45.3% | 71.3% | 86.3% | 1.9 µg/mL | Ulcer index Inhibitory % ([1]; 0.2 mg/kg p.o., ulcer index = sum of length (mm) of lesions): 45.8%; Ulcer index Inhibitory % ([1]; 0.5 mg/kg p.o., ulcer index = sum of length (mm) of lesions): 55.5%; anti-acetylcholine activity (in words) [5]: extremely weak
4 | CN1CCN(c2cc(-c3ccccc3)c3cc(Cl)ccc3n2)CC1 [6-chloro-2-(4-methyl-1-piperazinyl)-4-phenylquinoline] |  |  |  |  |  |  |  |  | have anti-inflammatory activity | diuretic activity |  |  |  |  |  |  |  |  |  |  | anti-reserpine activity [6]: weak anti-reserpine activity
5 | CCCC[N+]1(C)[C@@H]2C[C@@H](OC(=O)[C@H](CO)c3ccccc3)C[C@H]1[C@@H]1O[C@@H]12 (stereo partly shown) [Butylscopolamine bromide, butylscopolamine bromide, reference compound] |  | 19.0% | 28.6% | 38.1% | > 200 mg/kg | 44.3% | 71.0% | 25 mg/kg |  |  |  |  |  |  |  |  |  |  |  |  | Ulcer index Inhibitory % ([1]; 20 mg/kg p.o., ulcer index = sum of area (mm^2) of lesions): -2.1%; Ulcer index Inhibitory % ([1]; 50 mg/kg p.o., ulcer index = sum of area (mm^2) of lesions): 44.1%; Ulcer index Inhibitory % ([1]; 100 mg/kg p.o., ulcer index = sum of area (mm^2) of lesions): 97.8%; ED50 ([1]; ulcer index = sum of area (mm^2) of lesions from photograph): 49.1 mg/kg; Total acid content Reduction % (gastric secretion; 100 mg/kg p.o.): 83.7%
6 | CCN1CCN(c2cc(-c3ccccc3)c3ccccc3n2)CC1 [Compound A, 2-(4-ethyl-1-piperazinyl)-4-phenylquinolinedihydrochloride] | 2.8 mg/kg | 76.5% |  |  | 16 mg/kg |  |  | 1.8 mg/kg |  |  | 15.5% | 40.8% | 85.2% | 35.3% | 41.2% | 52.9% | 34.7% | 54.5% | 73.1% | 1.2 µg/mL | Ulcer index Inhibitory % ([1]; 10 mg/kg p.o., ulcer index = sum of length (mm) of lesions): 88.4%; Total acid content Reduction % (gastric secretion; 0.5 mg/kg p.o.): 18.2%; Percent mydriasis (pupil size; 5 mg/kg p.o.): 4.0%; Percent mydriasis (pupil size; 10 mg/kg p.o.): 2.7%; Percent mydriasis (pupil size; 20 mg/kg p.o.): 2.7%; Percent mydriasis (pupil size; 50 mg/kg p.o.): 1.3%; Percent mydriasis (pupil size; 100 mg/kg p.o.): 2.6%; mydriatic action (in words) (pupil size; rats, up to 100 mg/kg): did entirely not show any mydriatic action even in a dose of 100 mg/kg; anti-acetylcholine activity (in words) [5]: extremely weak
